Data reported in patent US9695155B2, “Herbicidal substituted pyrimidinyloxy benzene compounds” (E. I. DU PONT DE NEMOURS AND COMPANY, priority 2013, dated 2017).

How the values were obtained:
sedge, umbrella = assay: Test C flooded paddy test; assay type: in vivo, Cyperus difformis; conditions: Flood, scale 0 to 100 (0 no effect, 100 complete control), 13 to 15 days
Method in brief: (§1)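 Ratings were visual and made relative to untreated controls after 13 to 15 greenhouse days.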

barnyardgrass [1] = assay: Test C flooded paddy test; assay type: in vivo, Echinochloa crus-galli; conditions: Flood, scale 0 to 100 (0 no effect, 100 complete control), 13 to 15 days
Method in brief: as §1

corn = assay: Test E preemergence; assay type: in vivo, Zea mays; conditions: for Corn plant response rating: scale 0 to 100 (0 no effect, 100 complete control); for Plant response rating, Corn: scale 0 to 100, 0 no effect, 100 complete control
Method in brief: (§2)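 Compound in a non-phytotoxic solvent mixture with surfactant was applied preemergence to seeds in silt loam soil, or postemergence to plants 2 to 18 cm tall grown in peat-based potting medium. Plants were kept in a greenhouse for 14 to 21 days, then rated visually against untreated controls on a 0 (no effect) to 100 (complete control) scale.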

soybean = assay: Test E preemergence; assay type: in vivo, Glycine max; conditions: for Soybean plant response rating: scale 0 to 100 (0 no effect, 100 complete control); for Plant response rating, Soybean: scale 0 to 100, 0 no effect, 100 complete control
Method in brief: as §2

velvetleaf = assay: Test E preemergence; assay type: in vivo, Abutilon theophrasti; conditions: for Velvetleaf plant response rating: scale 0 to 100 (0 no effect, 100 complete control); for Plant response rating, Velvetleaf: scale 0 to 100, 0 no effect, 100 complete control
Method in brief: as §2

waterhemp = assay: Test E preemergence; assay type: in vivo, Amaranthus rudis; conditions: for Waterhemp plant response rating: scale 0 to 100 (0 no effect, 100 complete control); for Plant response rating, Waterhemp: scale 0 to 100, 0 no effect, 100 complete control
Method in brief: as §2

large (Lg) crabgrass = assay: Test E preemergence; assay type: in vivo, Digitaria sanguinalis; conditions: for Crabgrass, Large plant response rating: scale 0 to 100 (0 no effect, 100 complete control); for Plant response rating, Crabgrass, Large: scale 0 to 100, 0 no effect, 100 complete control
Method in brief: as §2

fall panicum = assay: Test E preemergence; assay type: in vivo, Panicum dichotomiflorum; conditions: for Panicum, Fall plant response rating: scale 0 to 100 (0 no effect, 100 complete control); for Plant response rating, Panicum, Fall: scale 0 to 100, 0 no effect, 100 complete control
Method in brief: as §2

giant foxtail = assay: Test E preemergence; assay type: in vivo, Setaria faberii; conditions: for Foxtail, Giant plant response rating: scale 0 to 100 (0 no effect, 100 complete control); for Plant response rating, Foxtail, Giant: scale 0 to 100, 0 no effect, 100 complete control
Method in brief: as §2

barnyardgrass [2] = assay: Test E preemergence; assay type: in vivo, Echinochloa crus-galli; conditions: for Barnyardgrass plant response rating: scale 0 to 100 (0 no effect, 100 complete control); for Plant response rating, Barnyardgrass: scale 0 to 100, 0 no effect, 100 complete control
Method in brief: as §2

field bindweed = assay: Test E preemergence; assay type: in vivo, Convolvulus arvensis; conditions: for Field Bindweed plant response rating: scale 0 to 100 (0 no effect, 100 complete control); for Plant response rating, Field Bindweed: scale 0 to 100, 0 no effect, 100 complete control
Method in brief: as §2

nightshade = assay: Test E preemergence; assay type: in vivo, Solanum ptycanthum; conditions: for Nightshade plant response rating: scale 0 to 100 (0 no effect, 100 complete control); for Plant response rating, Nightshade: scale 0 to 100, 0 no effect, 100 complete control
Method in brief: as §2

N#Cc1cccc(Oc2ncc(Br)cn2)c1-n1cc(C(F)(F)F)cn1 [Compound 59, 3-[(5-bromo-2-pyrimidinyl)oxy]-2-[4-(trifluoromethyl)-1H-pyrazol-1-yl]benzonitrile]
Plant response rating, Sedge, Umbrella (sedge, umbrella; 31 g ai/ha): 60 | Plant response rating, Sedge, Umbrella (sedge, umbrella; 62 g ai/ha): 80 | Plant response rating, Sedge, Umbrella (sedge, umbrella; 125 g ai/ha): 90 | Plant response rating, Sedge, Umbrella (sedge, umbrella; 250 g ai/ha): 95 | Plant response rating, Barnyardgrass (barnyardgrass [1]; 31 g ai/ha): 0 | Plant response rating, Barnyardgrass (barnyardgrass [1]; 62 g ai/ha): 0 | Plant response rating, Barnyardgrass (barnyardgrass [1]; 125 g ai/ha): 30 | Plant response rating, Barnyardgrass (barnyardgrass [1]; 250 g ai/ha): 40 | Corn plant response rating (corn; 16 g ai/ha): 0 | Corn plant response rating (corn; 31 g ai/ha): 0 | Corn plant response rating (corn; 62 g ai/ha): 0 | Plant response rating, Corn (corn; 125 g ai/ha): 30 | Plant response rating, Corn (corn; 250 g ai/ha): 50 | Soybean plant response rating (soybean; 16 g ai/ha): 0 | Soybean plant response rating (soybean; 31 g ai/ha): 0 | Plant response rating, Soybean (soybean; 125 g ai/ha): 50 | Plant response rating, Soybean (soybean; 250 g ai/ha): 95 | Velvetleaf plant response rating (velvetleaf; 16 g ai/ha): 0 | Velvetleaf plant response rating (velvetleaf; 31 g ai/ha): 25 | Velvetleaf plant response rating (velvetleaf; 62 g ai/ha): 75 | Plant response rating, Velvetleaf (velvetleaf; 125 g ai/ha): 100 | Plant response rating, Velvetleaf (velvetleaf; 250 g ai/ha): 100 | Waterhemp plant response rating (waterhemp; 16 g ai/ha): 100 | Waterhemp plant response rating (waterhemp; 31 g ai/ha): 100 | Waterhemp plant response rating (waterhemp; 62 g ai/ha): 100 | Plant response rating, Waterhemp (waterhemp; 125 g ai/ha): 100 | Plant response rating, Waterhemp (waterhemp; 250 g ai/ha): 100 | Crabgrass, Large plant response rating (large (Lg) crabgrass; 16 g ai/ha): 5 | Crabgrass, Large plant response rating (large (Lg) crabgrass; 31 g ai/ha): 95 | Crabgrass, Large plant response rating (large (Lg) crabgrass; 62 g ai/ha): 100 | Plant response rating, Crabgrass, Large (large (Lg) crabgrass; 125 g ai/ha): 100 | Plant response rating, Crabgrass, Large (large (Lg) crabgrass; 250 g ai/ha): 100 | Panicum, Fall plant response rating (fall panicum; 16 g ai/ha): 50 | Panicum, Fall plant response rating (fall panicum; 31 g ai/ha): 75 | Panicum, Fall plant response rating (fall panicum; 62 g ai/ha): 98 | Plant response rating, Panicum, Fall (fall panicum; 125 g ai/ha): 100 | Plant response rating, Panicum, Fall (fall panicum; 250 g ai/ha): 100 | Foxtail, Giant plant response rating (giant foxtail; 16 g ai/ha): 5 | Foxtail, Giant plant response rating (giant foxtail; 31 g ai/ha): 10 | Foxtail, Giant plant response rating (giant foxtail; 62 g ai/ha): 85 | Plant response rating, Foxtail, Giant (giant foxtail; 125 g ai/ha): 100 | Plant response rating, Foxtail, Giant (giant foxtail; 250 g ai/ha): 100 | Barnyardgrass plant response rating (barnyardgrass [2]; 16 g ai/ha, preemergence): 0 | Barnyardgrass plant response rating (barnyardgrass [2]; 31 g ai/ha, preemergence): 20 | Plant response rating, Barnyardgrass (barnyardgrass [2]; Preemergence, 62 g ai/ha): 50 | Plant response rating, Barnyardgrass (barnyardgrass [2]; preemergence, 125 g ai/ha): 75 | Plant response rating, Barnyardgrass (barnyardgrass [2]; preemergence, 250 g ai/ha): 95 | Field Bindweed plant response rating (field bindweed; 16 g ai/ha): 0 | Field Bindweed plant response rating (field bindweed; 31 g ai/ha): 5 | Field Bindweed plant response rating (field bindweed; 62 g ai/ha): 60 | Plant response rating, Field Bindweed (field bindweed; 125 g ai/ha): 60 | Plant response rating, Field Bindweed (field bindweed; 250 g ai/ha): 100 | Nightshade plant response rating (nightshade; 16 g ai/ha): 0 | Nightshade plant response rating (nightshade; 31 g ai/ha): 50 | Nightshade plant response rating (nightshade; 62 g ai/ha): 90 | Plant response rating, Nightshade (nightshade; 125 g ai/ha): 100 | Plant response rating, Nightshade (nightshade; 250 g ai/ha): 100

FC(F)(F)c1cnn(-c2c(Cl)cccc2Oc2ncc(Cl)cn2)c1 [Compound 167]
Plant response rating, Sedge, Umbrella (sedge, umbrella; 31 g ai/ha): 60 | Plant response rating, Sedge, Umbrella (sedge, umbrella; 62 g ai/ha): 70 | Plant response rating, Sedge, Umbrella (sedge, umbrella; 125 g ai/ha): 80 | Plant response rating, Sedge, Umbrella (sedge, umbrella; 250 g ai/ha): 85 | Plant response rating, Barnyardgrass (barnyardgrass [1]; 31 g ai/ha): 0 | Plant response rating, Barnyardgrass (barnyardgrass [1]; 62 g ai/ha): 0 | Plant response rating, Barnyardgrass (barnyardgrass [1]; 125 g ai/ha): 0 | Plant response rating, Barnyardgrass (barnyardgrass [1]; 250 g ai/ha): 0 | Corn plant response rating (corn; 16 g ai/ha): 0 | Corn plant response rating (corn; 31 g ai/ha): 0 | Corn plant response rating (corn; 62 g ai/ha): 15 | Plant response rating, Corn (corn; 125 g ai/ha): 25 | Soybean plant response rating (soybean; 31 g ai/ha): 0 | Soybean plant response rating (soybean; 62 g ai/ha): 20 | Plant response rating, Soybean (soybean; 125 g ai/ha): 50 | Velvetleaf plant response rating (velvetleaf; 31 g ai/ha): 20 | Velvetleaf plant response rating (velvetleaf; 62 g ai/ha): 65 | Plant response rating, Velvetleaf (velvetleaf; 125 g ai/ha): 100 | Waterhemp plant response rating (waterhemp; 31 g ai/ha): 98 | Waterhemp plant response rating (waterhemp; 62 g ai/ha): 98 | Plant response rating, Waterhemp (waterhemp; 125 g ai/ha): 100 | Crabgrass, Large plant response rating (large (Lg) crabgrass; 16 g ai/ha): 0 | Crabgrass, Large plant response rating (large (Lg) crabgrass; 31 g ai/ha): 65 | Crabgrass, Large plant response rating (large (Lg) crabgrass; 62 g ai/ha): 100 | Plant response rating, Crabgrass, Large (large (Lg) crabgrass; 125 g ai/ha): 100 | Panicum, Fall plant response rating (fall panicum; 31 g ai/ha): 65 | Panicum, Fall plant response rating (fall panicum; 62 g ai/ha): 100 | Plant response rating, Panicum, Fall (fall panicum; 125 g ai/ha): 100 | Foxtail, Giant plant response rating (giant foxtail; 16 g ai/ha): 0 | Foxtail, Giant plant response rating (giant foxtail; 31 g ai/ha): 0 | Foxtail, Giant plant response rating (giant foxtail; 62 g ai/ha): 100 | Plant response rating, Foxtail, Giant (giant foxtail; 125 g ai/ha): 100 | Barnyardgrass plant response rating (barnyardgrass [2]; 16 g ai/ha, preemergence): 20 | Barnyardgrass plant response rating (barnyardgrass [2]; 31 g ai/ha, preemergence): 20 | Barnyardgrass plant response rating (barnyardgrass [2]; 62 g ai/ha, preemergence): 25 | Plant response rating, Barnyardgrass (barnyardgrass [2]; preemergence, 125 g ai/ha): 75 | Field Bindweed plant response rating (field bindweed; 16 g ai/ha): 0 | Field Bindweed plant response rating (field bindweed; 31 g ai/ha): 0 | Field Bindweed plant response rating (field bindweed; 62 g ai/ha): 0 | Plant response rating, Field Bindweed (field bindweed; 125 g ai/ha): 10 | Nightshade plant response rating (nightshade; 31 g ai/ha): 98 | Nightshade plant response rating (nightshade; 62 g ai/ha): 100 | Plant response rating, Nightshade (nightshade; 125 g ai/ha): 100
